The text below walks through data of patent publication US10137115B2, “Therapeutic inhibitor for EBV-associated tumor with tailor responsive optical imaging” (priority 2016, dated 2018).

Entries after “also recorded” stand apart in the source; their conditions may differ. Non-standard residues stand in square brackets, D forms with d. Residues, ends and D or L forms follow the SMILES beside them. No end group written: not given here. *: point of attachment. X1 = CCN(CC)c1ccc(/C=C/c2cc[n+](CC(=O)*)cc2)cc1; Ahx = NCCCCCC(=O)O

Data set [1] has as its target T1, WT-EBNA1 (Epstein-Barr virus, UniProt P03211). Nature of the data set: Emission quantum yield in the presence of WT-EBNA1. As to conditions: in water, saturated WT-EBNA1, λex=480 nm.
Data set [2] concerns EBV-positive (C666-1 and NPC43) and EBV-negative (CNE2 and HeLa) cell lines. The experiment in a line: In vitro confocal imaging and co-staining. Type of data set: cell-based, human. Particulars: 10 μM, 6 h.
Experimental: HeLa is EBV-negative human cervical carcinoma cells, CNE2 is EBV-negative nasopharyngeal carcinoma cells, C666-1 is EBV-positive nasopharyngeal carcinoma cells, and NPC 43 is the newly derived EBV-positive nasopharyngeal carcinoma cells.
The cells are incubated with 6 hours before monitoring imaging.
The target of data set [3] is T1, WT-EBNA1. The experiment in a line: biochemical. Type of data set: binding. Further details: Wild type EBNA1 protein (379-641 a.a.) fusing with glutathione S-transferase is expressed in Escherichia coli; GST (glutathione S-transferase); made in house; host or cells: Escherichia coli (BL21). As to conditions: for emission intensity increase on addition of WT-EBNA1: 4 μM WT-EBNA1, PBS buffer. On the procedure:
Bind constant via luminescence titration: Luminescence titration analysis is conducted with gradually addition of WT EBNA1 to evaluate the binding constants between the three peptide conjugates and WT EBNA1. […] The binding constants for Ka are obtained from the double logarithm regression curve: lg[(I−I0)/I0]=lg Ka+n lg[G] equation 2
Where I and I0 are current and initial fluorescence, respectively, Ka is the binding constant, n is the number of binding sites per WT EBNA1, and [G] is total concentration of WT EBNA1.
Protein samples preparation. Five protein samples are used.

A short description of data set [4]: Emission quantum yield in water, comparative method using rhodamine 6G. Type of data set: physicochemical. Particulars: λex=480 nm, without WT-EBNA1. On the procedure: Quantum yields of L2Pn are evaluated by the following equation 1: […]
Where the subscripts r and s denote reference and sample respectively, ϕ is the quantum yield, G is the slope from the plot integrated emission intensity vs absorbance, and η is the refractive index of the solvent. The correction curve is obtained by comparing the experimentally recorded spectrum of the standard rhodamine 6G with the published data.

T1 sequence (P03211 379-641): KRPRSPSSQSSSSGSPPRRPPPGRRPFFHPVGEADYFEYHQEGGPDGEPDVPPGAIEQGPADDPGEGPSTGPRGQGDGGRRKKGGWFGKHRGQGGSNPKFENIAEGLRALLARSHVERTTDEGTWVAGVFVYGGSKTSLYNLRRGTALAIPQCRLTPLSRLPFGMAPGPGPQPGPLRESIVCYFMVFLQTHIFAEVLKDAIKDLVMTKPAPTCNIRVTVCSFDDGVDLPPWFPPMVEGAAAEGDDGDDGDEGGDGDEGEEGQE

Take “L2P2: peptide conjugate of L2 (4-(4-(Diethylamino)styryl)-N-carboxymethylpyridinium chloride) and peptide P2 YFMVF (also: conjugated to L2, site not given here)”: the “emission quantum yield + WT EBNA1” value with WT-EBNA1 [1] is 3.8%. Moreover, in data set [2], the “subcellular localization in EBV-positive cells” value was “cytoplasm location only; also recorded: only found in the cytoplasm”. Further, the “emission intensity increase on addition of WT-EBNA1” value with WT-EBNA1 [3] was “no intensity change; also recorded: did not show any enhancements”. Also, the emission quantum yield in data set [4] was determined as 4.4%.
Regarding `CCN(CC)c1ccc(/C=C/c2cc[n+](CC(=O)N[C@@H](CS)C(=O)NCCCCCC(=O)N[C@@H](CCCNC(=N)N)C(=O)N[C@H](CCCNC(=N)N)C(=O)N[C@@H](CCCNC(=N)N)C(=O)N[C@@H](CCCCN)C(=O)NCC(=O)NCC(=O)N[C@@H](Cc3ccc(O)cc3)C(=O)N[C@@H](Cc3ccccc3)C(=O)N[C@@H](CCSC)C(=O)N[C@H](C(=O)N[C@@H](Cc3ccccc3)C(N)=O)C(C)C)cc2)cc1` [L2P3] (X1-C[Ahx]R[dR]RKGGYFMVF-NH2), the “emission quantum yield + WT EBNA1” value at WT-EBNA1 [1] is listed as 13.0%. Besides, the “subcellular localization in EBV-positive cells” value in data set [2] was “can goes into C666-1 cell nucleus; also recorded: nuclear localization”. On WT-EBNA1 [3], the dissociation constant Kd was 3.16 µM and the “emission intensity increase on addition of WT-EBNA1” value was 4.7 fold. The “selectivity towards WT-EBNA1 (emission enhancement vs other proteins, ions)” value at WT-EBNA1 [3] (2 μM in PBS buffer, vs BSA, mutant EBNA1, ZnCl2, NaHCO3, CuCl2, citrates) is “selective towards WT-EBNA1”. The compound also displayed an emission quantum yield in data set [4] of 4.3%.
